From publication PMC3617124 (Nature chemical biology, 2012)
Blank lines part the entries; values can stand above or below the compound they belong to.

Key:
Bax^−/− and Bak^−/− MEFs = experiment: apoptotic response to standard proapoptotic stimuli; type: cell-based, mouse
BCL-XLΔC = BCL-XLΔC (Homo sapiens, UniProt Q07817); experiment: competitive FPA, BCL-XLΔC; type: binding; conditions: even at 50-μM dosing
MCL-1ΔNΔC = MCL-1ΔNΔC (Homo sapiens, UniProt Q07820); experiment: competitive FPA, MCL-1ΔNΔC; type: binding; conditions: even at 50-μM dosing
Chain of MCL-1ΔNΔC (Q07820 172-327, stated change not applied): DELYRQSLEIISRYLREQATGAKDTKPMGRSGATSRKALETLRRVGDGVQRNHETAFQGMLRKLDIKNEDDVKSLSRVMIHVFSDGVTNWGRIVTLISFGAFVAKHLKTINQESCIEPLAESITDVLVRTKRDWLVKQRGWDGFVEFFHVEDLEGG

BFL-1/A1ΔC = target: T1, BFL-1/A1ΔC (Homo sapiens, UniProt Q16548); experiment: competitive FPA, BFL-1/A1ΔC; type: binding; conditions: even at 50-μM dosing
T1 sequence (Q16548 1-153 limits assumed): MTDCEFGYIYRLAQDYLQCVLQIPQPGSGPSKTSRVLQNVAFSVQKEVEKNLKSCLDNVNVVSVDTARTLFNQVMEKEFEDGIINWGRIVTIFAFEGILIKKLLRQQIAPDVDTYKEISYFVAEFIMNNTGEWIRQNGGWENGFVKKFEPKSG

BAKΔC = experiment: competitive FPA, BAKΔC; type: binding
Bak^−/− MEFs [1] = experiment: cell viability assay; type: cell-based, mouse; conditions: 24 h, CellTiter-Glo
Bax^−/− MEFs = experiment: cell viability assay; type: cell-based, mouse; conditions: 24 h, CellTiter-Glo
Bax^−/− Bak^−/− MEFs = experiment: cell viability assay; type: cell-based, mouse; conditions: 24 h, CellTiter-Glo
Bak^−/− MEFs [2] = experiment: mitochondrial cytochrome c release; type: cell-based, mouse; conditions: 15 h, supernatant and pellet western blot

Chain of BCL-XLΔC (Q07817 1-212 limits assumed, stated change not applied): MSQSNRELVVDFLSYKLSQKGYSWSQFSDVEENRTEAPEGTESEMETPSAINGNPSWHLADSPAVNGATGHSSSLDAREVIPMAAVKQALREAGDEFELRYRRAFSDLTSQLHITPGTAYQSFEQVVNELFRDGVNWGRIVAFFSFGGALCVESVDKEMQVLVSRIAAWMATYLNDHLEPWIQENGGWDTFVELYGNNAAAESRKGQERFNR

SMILES: CN[C@@H]1C[C@H]2O[C@@](C)([C@@H]1OC)n1c3ccccc3c3c4c(c5c6ccccc6n2c5c31)C(=O)NC4 [staurosporine]
apoptotic response in Bax−/− versus Bak−/− MEFs (Bax^−/− and Bak^−/− MEFs): equivalent apoptotic response

competitive binding interaction with BCL-XLΔC (BCL-XLΔC): little to no
competitive binding interaction with MCL-1ΔNΔC (MCL-1ΔNΔC): little to no
competitive binding interaction with BFL-1/A1ΔC (BFL-1/A1ΔC): little to no
competitive binding interaction with BAKΔC (BAKΔC; even at 50-μM dosing): little to no
SMILES: CCOc1ccccc1NN=C1C(=O)N(c2nc(-c3ccccc3)cs2)N=C1C [BAM7, 4-(2-(2-ethoxyphenyl) hydrazono)-3-methyl-1-(4-phenylthiazol-2-yl)-1H-pyrazol-5(4H)-one]
viability of Bak−/− MEFs (Bak^−/− MEFs [1]): dose- and time-responsively impaired the viability
viability of Bax−/− MEFs (Bax^−/− MEFs): no effect
viability of Bax−/− Bak−/− MEFs (Bax^−/− Bak^−/− MEFs): did not affect the viability
mitochondrial cytochrome c release (Bak^−/− MEFs [2]): dose-responsive mitochondrial cytochrome c release

SMILES: COc1cc([C@@H]2c3cc4c(cc3[C@@H](O[C@@H]3O[C@@H]5CO[C@@H](C)O[C@H]5[C@H](O)[C@H]3O)[C@H]3COC(=O)[C@H]23)OCO4)cc(OC)c1O [etoposide]
apoptotic response in Bax−/− versus Bak−/− MEFs (Bax^−/− and Bak^−/− MEFs): equivalent apoptotic response

SMILES: CC[C@H](C)[C@H](NC(C)=O)C(=O)N[C@@H](Cc1c[nH]c2ccccc12)C(=O)N[C@H](C(=O)N[C@@H](C)C(=O)N[C@@H](CCC(N)=O)C(=O)N[C@@H](CCC(=O)O)C(=O)N[C@@H](CC(C)C)C(=O)N[C@@H](CCCNC(=N)N)C(=O)N[C@@]1(C)CCCC=CCCC[C@@](C)(C(=O)N[C@@H](Cc2ccccc2)C(=O)N[C@@H](CC(N)=O)C(=O)N[C@@H](C)C(=O)N[C@@H](Cc2ccc(O)cc2)C(=O)N[C@@H](Cc2ccc(O)cc2)C(=O)N[C@@H](C)C(=O)N[C@@H](CCCNC(=N)N)C(=O)N[C@@H](CCCNC(=N)N)C(N)=O)NC(=O)[C@H](CC(=O)O)NC(=O)CNC(=O)[C@H]([C@@H](C)CC)NC1=O)[C@@H](C)CC [BIM SAHB, reference compound]
IC50 (BAKΔC; read-out: IC50, competition with FITC–BIM SAHB for BAKΔC, competitive FPA): 827 nM
